In patent US5681826A, “Saccharide composition with reduced reducibility, and preparation and uses thereof” (Kabushiki Kaisha Hayashibara Seibutsu Kagaku Kenkyujo, priority 1994, dated 1997):
“Also recorded” adds a separate entry of the source.

Key:
[1] = Utilization test in vivo, oral administration to healthy male volunteers; design: species or system human; conditions: 30 g oral
Method: In accordance with the method as reported by H. Atsuji et al. in "Rinsho-Eiyo", Vol.41, No.2, pp.200-208 (1972), 30 g of a high-purity trehalose preparation with a purity of 99.5%, d.s.b., obtained by the method in Experiment 17 was dissolved in water into a 20 w/v % aqueous solution which was then orally administered to 6 healthy male volunteers. The volunteers were collected their blood at a prescribed time interval, and each collected blood was assayed for blood sugar- and insulin-levels. As a control Glucose was used.

[2] = Maillard reaction with glycine, absorbance at 480 nm; assay type: physicochemical
Method: A solution, containing one % glycine and 10% of a saccharide preparation PI, P II, P III, P IV or P V in Experiment 4 and 50 mM phosphate buffer (pH 7.0), was kept at 100° C. for 90 min, followed by cooling the resultant solution, and determining for absorbance at a wave length of 480 nm in a 1-cm cell. As a control, maltotriose, maltotetraose, maltopentaose, maltohexaose and maltoheptaose, as a material for the saccharide preparations, were similarly treated as above, and measured for absorbance at a wave length of 480 nm.
A solution, containing one % of glycine, 10% of a high-purity trehalose preparation with a purity of 99.5%, d.s.b., obtained by the method in Experiment 17, and 50 mM phosphate buffer (pH 7.0), was kept at 100° C. for 90 min, followed by cooling the resultant solution and determining the absorbance at a wave length of 480 nm in a 1-cm cell. As a control, glucose and maltose were similarly treated as above, and the resultants were determined for absorbance at a wave length of 480 nm.

[3] = test system: trehalose derived from pig kidney; assay: Hydrolysis of trehalose by enzyme derived from pig kidney; assay type: biochemical; conditions: pH 5.7, 37°C., 18 hours (Experiment 7)
Method: To purify trehalose in each reaction mixture, it was subjected to column chromatography using a column packed with "XT-1016", a strong-acid cation exchange resin in Na^+ -form commercialized by Tokyo Organic Chemical Industries, Ltd., Tokyo, Japan, followed by recovering fractions containing 97% or more of trehalose. The fractions were pooled and concentrated into an about 65% solution which was then allowed to stand at 25° C. for 2 days to crystallize trehalose into hydrous crystalline trehalose, followed by separating and drying it in vacuo to obtain a high-purity trehalose preparation with a purity of 99% or more, d.s.b. The yields of trehalose from glucosyltrehalose, maltosyltrehalose, maltotriosyltrehalose, maltotetraosyltrehalose and maltopentaosyltrehalose used as a substrate were respectively 9.5%, 14.9%, 16.0%, 18.5% and 17.7%, d.s.b. The high-purity trehalose preparations and a commercially available trehalose specimen as a standard were studied for melting point, heat of fusion, specific rotation, infrared absorption spectrum, powdery X-ray diffraction pattern, and readiness of hydrolysis by a […] derived from pig kidney, commercialized by Sigma Chemical Co., St. Louise, USA.

Time of maximum blood sugar level ([1]; 20 w/v % aqueous solution): 0.5 to 1 h | Time of maximum insulin level ([1]; 20 w/v % aqueous solution): 0.5 to 1 h | Coloration degree relative to glucose or maltose [2]: 0.4-0.6% | Coloration degree (480 nm) ([2]; one % glycine, 10% saccharide, pH 7.0, 100°C., 90 min, 1-cm cell): 0.006
SMILES: OC[C@H]1O[C@H](O[C@H]2O[C@H](CO)[C@@H](O)[C@H](O)[C@H]2O)[C@H](O)[C@@H](O)[C@@H]1O [Trehalose, α,α-trehalose]
Utilization by the body ([1]; control glucose): readily assimilated, absorbed, metabolized and utilized by the body as an energy source | Maillard reaction [2]: substantially free from the maillard reaction | Hydrolysis to glucose by pig kidney enzyme [3]: hydrolyzed by trehalose into glucose molecules; also recorded: decomposed into glucose molecules
